The source of these data is ChEMBL document CHEMBL4673346, “Discovery of a benzimidazole series as the first highly potent and selective ACSL1 inhibitors” (Bioorg Med Chem Lett, 2021).

A short description of series [1]: Oral bioavailability in rat at 1 mg/kg. The format is ADME, organism-based. Particulars: in vivo.
Series [2] in a line: Metabolic stability in rat liver microsomes assessed as compound remaining after 30 mins. The format is ADME, Microsome. The note with it: read-out: Stabilty. A general note: Liver microsomes are a subcellular fraction often used to study metabolism.
Series [3] in a line: Inhibition of insulin/isobutyl-1-methylxanthin/dexamethasone-induced adipocytes differentiation in mouse 3T3-L1 cells by measuring 14C-triglyceride levels incubated for 1 hrs followed by oleic acid addition and measured after 10 mins by microbeta scintillation counting method. The format is functional. The note with it: 3T3-L1, 1.167 h, time 70 min.
Series [4] has as its target Long-chain-fatty-acid--CoA ligase 4 (Homo sapiens, UniProt O60488). The series can be described thus: Inhibition of recombinant human ACSL4 assessed as reduction in […] prodution incubated for 120 mins in presence of Coenzyme A, ATP and MgCl2 by MALDI-TOF MS analysis.
The target of series [5] is Fatty acid CoA ligase Acsl3 (Homo sapiens, UniProt O95573). The series can be described thus: Inhibition of recombinant human ACSL3 assessed as reduction in […] prodution incubated for 90 mins in presence of Coenzyme A, ATP and MgCl2 by MALDI-TOF MS analysis.
Sequence of Fatty acid CoA ligase Acsl3 (O95573 whole entry): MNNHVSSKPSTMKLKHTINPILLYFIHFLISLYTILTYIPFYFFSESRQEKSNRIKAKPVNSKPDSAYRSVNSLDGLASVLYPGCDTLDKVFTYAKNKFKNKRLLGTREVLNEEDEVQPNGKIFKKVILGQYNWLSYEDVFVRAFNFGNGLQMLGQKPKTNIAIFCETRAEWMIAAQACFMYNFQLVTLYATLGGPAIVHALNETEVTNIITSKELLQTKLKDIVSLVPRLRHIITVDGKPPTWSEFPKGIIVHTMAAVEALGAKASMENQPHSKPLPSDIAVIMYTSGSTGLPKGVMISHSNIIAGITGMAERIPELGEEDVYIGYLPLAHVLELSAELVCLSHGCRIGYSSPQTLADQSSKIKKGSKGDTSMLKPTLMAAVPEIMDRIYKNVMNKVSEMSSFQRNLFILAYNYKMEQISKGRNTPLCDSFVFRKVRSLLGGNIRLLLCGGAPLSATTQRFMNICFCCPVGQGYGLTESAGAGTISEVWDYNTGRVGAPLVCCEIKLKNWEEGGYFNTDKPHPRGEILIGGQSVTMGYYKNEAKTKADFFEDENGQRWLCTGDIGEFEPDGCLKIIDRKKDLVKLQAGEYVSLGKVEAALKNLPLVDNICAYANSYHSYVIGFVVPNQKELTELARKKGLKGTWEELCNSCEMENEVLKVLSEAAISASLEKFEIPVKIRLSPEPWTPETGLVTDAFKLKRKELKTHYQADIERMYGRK
Series [6] concerns the target T1, Long-chain-fatty-acid--CoA ligase 1 (Mus musculus, UniProt P41216).
T1 sequence (P41216 whole entry): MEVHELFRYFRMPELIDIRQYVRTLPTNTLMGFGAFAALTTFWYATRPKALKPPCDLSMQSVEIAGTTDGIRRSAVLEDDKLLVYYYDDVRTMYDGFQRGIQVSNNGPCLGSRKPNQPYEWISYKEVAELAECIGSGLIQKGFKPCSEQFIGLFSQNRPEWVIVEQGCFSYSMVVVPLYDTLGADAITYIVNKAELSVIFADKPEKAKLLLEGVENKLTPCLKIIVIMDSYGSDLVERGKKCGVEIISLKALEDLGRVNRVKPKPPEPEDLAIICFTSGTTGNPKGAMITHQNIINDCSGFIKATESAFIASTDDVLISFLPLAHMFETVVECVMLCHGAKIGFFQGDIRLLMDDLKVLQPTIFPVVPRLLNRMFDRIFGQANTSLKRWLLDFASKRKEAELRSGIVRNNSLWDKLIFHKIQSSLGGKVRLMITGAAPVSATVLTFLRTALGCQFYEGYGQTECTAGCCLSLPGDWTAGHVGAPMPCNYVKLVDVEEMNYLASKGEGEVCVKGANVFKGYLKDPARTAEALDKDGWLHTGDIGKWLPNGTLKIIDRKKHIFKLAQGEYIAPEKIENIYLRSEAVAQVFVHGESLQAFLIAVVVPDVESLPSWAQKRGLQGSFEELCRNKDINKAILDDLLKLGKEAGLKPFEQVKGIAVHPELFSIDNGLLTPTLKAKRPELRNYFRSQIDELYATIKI
The series can be described thus: Inhibition of recombinant mouse ACSL1 assessed as reduction in […] prodution incubated for 90 mins in presence of Coenzyme A, ATP and MgCl2 by MALDI-TOF MS analysis.

Series [7] deals with T2, Long-chain-fatty-acid--CoA ligase 1 (Homo sapiens, UniProt P33121).
T2 sequence (P33121 whole entry): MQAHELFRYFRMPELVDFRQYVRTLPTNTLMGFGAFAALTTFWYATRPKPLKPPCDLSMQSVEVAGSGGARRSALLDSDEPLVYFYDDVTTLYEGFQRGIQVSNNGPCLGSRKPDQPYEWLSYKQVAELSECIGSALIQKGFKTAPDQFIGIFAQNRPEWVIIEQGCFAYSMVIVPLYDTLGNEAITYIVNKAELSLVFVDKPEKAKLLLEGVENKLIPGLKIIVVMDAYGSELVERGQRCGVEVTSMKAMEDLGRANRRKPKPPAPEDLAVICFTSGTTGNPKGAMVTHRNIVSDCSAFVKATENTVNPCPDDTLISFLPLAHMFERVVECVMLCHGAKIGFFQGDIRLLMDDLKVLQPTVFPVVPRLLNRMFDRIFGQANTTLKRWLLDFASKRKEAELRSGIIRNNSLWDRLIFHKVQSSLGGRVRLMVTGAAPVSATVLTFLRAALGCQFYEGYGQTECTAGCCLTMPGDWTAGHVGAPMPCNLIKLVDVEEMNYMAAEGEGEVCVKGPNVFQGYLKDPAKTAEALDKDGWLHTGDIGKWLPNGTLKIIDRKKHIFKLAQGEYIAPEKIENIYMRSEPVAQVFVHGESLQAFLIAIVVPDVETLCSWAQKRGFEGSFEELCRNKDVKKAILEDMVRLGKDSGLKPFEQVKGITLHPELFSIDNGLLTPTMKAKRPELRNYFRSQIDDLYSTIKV
The series can be described thus: Inhibition of recombinant human ACSL1 assessed as reduction in […] prodution incubated for 90 mins in presence of Coenzyme A, ATP and MgCl2 by MALDI-TOF MS analysis.

pIC50: −log10 of the molar value.

Sequence of Long-chain-fatty-acid--CoA ligase 4 (O60488 whole entry): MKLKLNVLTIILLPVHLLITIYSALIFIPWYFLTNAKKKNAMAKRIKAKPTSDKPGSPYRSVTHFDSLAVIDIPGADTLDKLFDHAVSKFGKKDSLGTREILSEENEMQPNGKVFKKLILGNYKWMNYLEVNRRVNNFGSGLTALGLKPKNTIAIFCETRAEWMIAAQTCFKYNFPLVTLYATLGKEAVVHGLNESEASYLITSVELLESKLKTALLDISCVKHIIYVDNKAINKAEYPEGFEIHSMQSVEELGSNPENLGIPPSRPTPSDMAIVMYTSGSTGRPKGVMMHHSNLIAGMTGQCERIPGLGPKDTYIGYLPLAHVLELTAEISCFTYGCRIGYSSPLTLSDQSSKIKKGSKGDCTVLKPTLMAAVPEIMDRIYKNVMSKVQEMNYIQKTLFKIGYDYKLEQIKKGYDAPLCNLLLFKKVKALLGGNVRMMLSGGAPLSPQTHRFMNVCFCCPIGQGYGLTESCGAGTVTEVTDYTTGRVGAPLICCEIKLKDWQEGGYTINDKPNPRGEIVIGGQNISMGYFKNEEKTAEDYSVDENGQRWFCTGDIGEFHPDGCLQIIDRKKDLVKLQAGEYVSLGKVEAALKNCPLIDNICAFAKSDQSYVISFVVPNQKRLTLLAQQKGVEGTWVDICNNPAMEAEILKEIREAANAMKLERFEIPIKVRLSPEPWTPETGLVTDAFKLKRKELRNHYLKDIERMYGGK

A word on the IC30: it is the concentration needed for an effect of 30%. Lower therefore signals an effect from little substance. The pIC50 is −log10 of the IC50, conventionally taken in molar units. In the case of `Cc1cccc(Cc2nc3cc(O[C@H]4CC[C@@H](C(=O)O)CC4)ccc3n2C)c1`, the bioavailability in series [1] was 119%. Moreover, the remaining at 0.5 h in series [2] was found to be 93%. This compound came in with an IC30 in series [3] of 39 nM. Besides, the pIC50 in series [4] was < 3.70; in series [5], < 3.70; in series [6] it was 7.52; in series [7], 7.38.
